From patent US20100069382A1, “Agent for prophylaxis or treatment of alcohol dependence or drug dependence” (priority 2006, published 2010)
Where two headings read alike, the source gives them in different places.

How the values were obtained:
[1] = existing medicines, known profile, cited from earlier work
msP rats [2] = test: Effect on alcohol intake in msP rats; format: in vivo, rat
Protocol: Male genetically selected alcohol-preferring rats known as Marchigian Sardinian alcohol-preferring (msP) rats were used in this study (Addiction Biol. 11, 339-355, 2006). […] Compound A at doses of 0.3 and 1 mg/kg/body weight was orally administered twice for 9 days at 1 hour before and 8 hours after onset of dark period.

Wistar rats = test: Effect on alcohol withdrawal symptoms in Wistar rats; format: in vivo, rat
Protocol: Male Wistar rats were used in this study. According to the protocol shown in FIG. 1, rats were orally given 12-15 g/kg/body weight of ethanol in 24 hours on day 1 to day 2 and 9-10 g/kg/body weight of ethanol in 12 hours on day 3 to day 5. Compound A was administered p.o. at doses of 0.3 and 1 mg/kg/body weight twice after 2 and 7 hours of last ethanol administration. Four types of alcohol withdrawal symptoms such as vocalization, ventromedial limb retraction, tail rigidity, tail tremors were observed and scored with following 3 rating scales: mild=0, moderate=1, severe=2.

msP rats [3] = test: Study on dependence elicitation (conditioned place preference) in msP rats; format: in vivo, rat
Protocol: A two-compartment box divided by guillotine door was used. […] For the following 6 days, the rats were treated on alternate days with three Compound A-pairing administrations (0.3 and 1.0 mg/kg/body weight, p.o.) and three vehicle-pairing administrations immediately before being placed, for 1 hour, into the assigned chamber with guillotine door close for drug-compartment discrimination (conditioning). The day after the last conditioning session, the rats were placed, for 15 min, in the box with door open. The time spent in the drug paired compartment was measured.

msP rats [4] = test: Yohimbine-induced reinstatement of alcohol-seeking behavior in msP rats; format: in vivo, rat
Description: Male genetically selected alcohol-preferring rats known as msP rats were used in this study (Addiction Biol. 11, 339-355, 2006). […] After acquisition of a stable baseline of 10% ethanol self-administration, rats were subjected to 30-min extinction sessions for 15 consecutive days. Extinction sessions were identical to 10% ethanol self-administration sessions, however alcohol was no longer available. Beginning on extinction day 10, rats were divided into three groups with similar baseline levels of responding for 10% ethanol. For six consecutive days, 1 hour before the self-administration session and 8 hours later, each group of rats were orally given vehicle, 0.3 mg/kg of Compound A or 1.0 mg/kg of Compound A. After the extinction sessions, rats were given yohimbine (1,25 mg/kg, i.p.) 35 min before the test sessions. The 30-min reinstatement test was conducted under extinction condition.
Yohimbine was used as stressor for this study, because yohimbine is known to produce stress and anxiety-like states in both humans and non-humans (Bremner et al, 1996; Charney et al 1983; Holmberg et al 1963).

[5] = Economidou et al., Peptides 27, 3299-3306, 2006, cited from earlier work
[6] = 0.3 and 1 mg/kg/body weight p.o. twice, 2 and 7 hours after last ethanol, observed 8 to 24 hours after last ethanol administration, FIG. 2

O=C1CC[C@@]2(O)[C@H]3Cc4ccc(O)c5c4[C@@]2(CCN3CC2CC2)[C@H]1O5 [Naltrexone]
Ameliorative effect on alcohol withdrawal symptoms [1]: none | Presence/absence of dependence [1]: absent | Suppressive effect on excessive alcohol intake [1]: yes | Suppressive effect on stress-induced reinstatement [1]: none | Ameliorative effect on alcohol withdrawal symptoms ([1]; listed as naltrexone): ineffective | Suppressive effect on excessive alcohol intake ([1]; listed as naltrexone): effective | Suppressive effect on stress-induced reinstatement ([1]; listed as naltrexone): ineffective

CN1C(=O)CN=C(c2ccccc2)c2cc(Cl)ccc21 [Diazepam]
Ameliorative effect on alcohol withdrawal symptoms [1]: yes | Presence/absence of dependence [1]: present | Suppressive effect on excessive alcohol intake [1]: none | Suppressive effect on stress-induced reinstatement [1]: none | Presence/absence of dependence ([1]; listed as diazepam): induce dependence

CC(=O)NCCCS(=O)(=O)O [Acamprosate]
Ameliorative effect on alcohol withdrawal symptoms [1]: none | Presence/absence of dependence [1]: absent | Suppressive effect on excessive alcohol intake [1]: yes | Suppressive effect on stress-induced reinstatement [1]: none | Ameliorative effect on alcohol withdrawal symptoms ([1]; listed as acamprosate): ineffective | Suppressive effect on excessive alcohol intake ([1]; listed as acamprosate): effective | Suppressive effect on stress-induced reinstatement ([1]; listed as acamprosate): ineffective

CNC(=O)Cn1c(=O)n(C2CCN([C@@H]3Cc4cccc5cccc3c45)CC2)c2ccccc21 [Compound A, (R)-2-{3-[1-(acenaphthen-1-yl)piperidin-4-yl]-2,3-dihydro-2-oxo-benzimidazol-1-yl}-N-methylacetamide]
ethanol consumption (msP rats [2]; 0.3 and 1 mg/kg/body weight orally twice daily for 9 days, free choice water / 10% ethanol, FIG. 4): significantly and dose-dependently decreased | Suppressive effect on excessive alcohol intake (msP rats [2]; Table 1 summary, Compound A): yes | duration of significant decrease of ethanol consumption after withdrawal of Compound A (msP rats [2]; after 9 days of oral dosing at 0.3 and 1 mg/kg/body weight, FIG. 4): 9 days | score of tail rigidity (alcohol withdrawal symptom) (Wistar rats; [6]): significantly and dose-dependently decreased | score of tail tremors (alcohol withdrawal symptom) (Wistar rats; [6]): significantly and dose-dependently decreased | score of ventromedial limb retraction (alcohol withdrawal symptom) (Wistar rats; [6]): significantly and dose-dependently decreased | Ameliorative effect on alcohol withdrawal symptoms (Wistar rats; Table 1 summary, Compound A): yes | place preference (time spent in drug paired compartment) (msP rats [3]; 0.3 and 1.0 mg/kg/body weight p.o., three pairings, FIG. 8): induced place preference at neither 0.3 nor 1 mg/kg/body weight | Presence/absence of dependence (msP rats [3]; Table 1 summary, Compound A): absent | dependence elicitation by the compound itself (msP rats [3]; conclusion from conditioned place preference at 0.3 and 1 mg/kg/body weight): does not elicit dependence | yohimbine stress-induced reinstatement of alcohol-seeking behavior (msP rats [4]; 1 mg/kg orally twice daily for six days, yohimbine 1,25 mg/kg i.p., FIG. 6): significantly attenuated | Suppressive effect on stress-induced reinstatement (msP rats [4]; Table 1 summary, Compound A): yes

Clc1cccc(Cl)c1N=C1NCCN1 [Clonidine]
Ameliorative effect on alcohol withdrawal symptoms [1]: yes | Presence/absence of dependence [1]: absent | Suppressive effect on excessive alcohol intake [1]: none | Suppressive effect on stress-induced reinstatement [1]: none | Ameliorative effect on alcohol withdrawal symptoms ([1]; listed as clonidine): effective | Suppressive effect on excessive alcohol intake ([1]; listed as clonidine): ineffective | Suppressive effect on stress-induced reinstatement ([1]; listed as clonidine): ineffective

O=C1NCN(c2ccccc2)C12CCN([C@@H]1CC[C@H]3CCCc4cccc1c43)CC2 [Ro64-6198]
alcohol drinking [5]: failed to decrease alcohol drinking | alcohol drinking at high dose ([5]; high dose): increase
